Values quoted from earlier work in patent US7666823B2, “Lens care solutions” (Novartis AG, priority 2005, dated 2010).

Conditions: dissociation constant of the dibasic compound, aqueous

pKa1: 6.8
pKa2: 9.5
SMILES: OCC(CO)(CO)NCCCNC(CO)(CO)CO [bis-TRIS-propane, 1,3-bis(tris[hydroxymethyl]methylamino)propane]
